Target: human HPK1 (MAP4K1) (Homo sapiens (Human), UniProt Q92918)
Assay: HPK1 IC50 Assay
Assay type: biochemical
Conditions: recombinant HPK1 kinase domain 0.15 nM, synthetic peptide substrate STK S1, 3 hours at 25° C., time-resolved fluorescence energy transfer; geometric mean of multiple experiments

Chain of human HPK1 (MAP4K1) (Q92918 17-274): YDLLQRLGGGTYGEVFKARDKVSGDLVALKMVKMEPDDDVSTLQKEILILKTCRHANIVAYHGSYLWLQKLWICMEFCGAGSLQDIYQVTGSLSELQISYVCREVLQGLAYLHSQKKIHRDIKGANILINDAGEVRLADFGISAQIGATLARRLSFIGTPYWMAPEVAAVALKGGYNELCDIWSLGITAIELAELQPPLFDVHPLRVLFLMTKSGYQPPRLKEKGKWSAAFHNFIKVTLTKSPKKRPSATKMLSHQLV

| IC50 | Compound |
| --- | --- |
| 50 pM | Cc1c[nH]c(/C=C2\C(=O)Nc3ccc(-c4cnc5c(c4C)NCCO5)cc32)c1 [Compound C28, (Z)-3-((4-methyl-H-pyrrol-2-yl)methylene)-5-(8-methyl-2,3-dihydro-1H-pyrido[2,3-b][1,4]oxazin-7-yl)indolin-2-one] |
| 2130 pM | Cc1c(-c2ccc3c(c2)/C(=C/c2ncc[nH]2)C(=O)N3)cnc2c1NCC1(CC1)O2 [Compound C72, (Z)-3-((1H-imidazol-2-yl)methylene)-5-(8′-methyl-1′,2′-dihydrospiro[cyclopropane-1,3′-pyrido[2,3-b][1,4]oxazin]-7′-yl)indolin-2-one] |
| 110 pM | Cc1cc2c(cc1-c1cnc3c(c1C)NCCO3)/C(=C/c1cc3ncccc3[nH]1)C(=O)N2 [Compound C38, (Z)-3-((1H-pyrrolo[3,2-b]pyridin-2-yl)methylene)-6-methyl-5-(8-methyl-2,3-dihydro-1H-pyrido[2,3-b][1,4]oxazin-7-yl)indolin-2-one] |
| 290 pM | Cc1c(-c2cc(F)c3c(c2C)/C(=C/c2ccc[nH]2)C(=O)N3)cnc2c1NCCO2 [Compound C14, (Z)-3-((1H-pyrrol-2-yl)methylene)-7-fluoro-4-methyl-5-(8-methyl-2,3-dihydro-1H-pyrido[2,3-b][1,4]oxazin-7-yl)indolin-2-one] |
| 3020 pM | Cc1c(-c2ccc3c(c2)/C(=C/c2ccns2)C(=O)N3)cnc2c1NCCO2 [Compound C18, (Z)-3-(isothiazol-5-ylmethylene)-5-(8-methyl-2,3-dihydro-1H-pyrido[2,3-b][1,4]oxazin-7-yl)indolin-2-one] |
| 1880 pM | Cc1c(-c2ccc3c(c2)C(=Cc2cccs2)C(=O)N3)cnc2c1NCCO2 (racemic) [Compound C19, (E and Z)-5-(8-methyl-2,3-dihydro-1H-pyrido[2,3-b][1,4]oxazin-7-yl)-3-(thiophen-2-ylmethylene)indolin-2-one] |
| 7030 pM | Cc1c(-c2ccc3c(c2)/C(=C/c2cc4cnccc4[nH]2)C(=O)N3)ccc2c1NC(=O)CO2 [Compound C39, (Z)-6-(3-((1H-pyrrolo[3,2-c]pyridin-2-yl)methylene)-2-oxoindolin-5-yl)-5-methyl-2H-benzo[b][1,4]oxazin-3(4H)-one] |
| 290 pM | Cc1ncc(/C=C2\C(=O)Nc3cc(Cl)c(-c4cnc5c(c4C)NCCO5)cc32)[nH]1 [Compound C7, (Z)-6-chloro-3-((2-methyl-1H-imidazol-5-yl)methylene)-5-(8-methyl-2,3-dihydro-1H-pyrido[2,3-b][1,4]oxazin-7-yl)indolin-2-one] |
| 120 pM | CCc1nc(C)c(/C=C2\C(=O)Nc3ccc(-c4cnc5c(c4C)NCCO5)cc32)[nH]1 [Compound C6, (Z)-3-((2-ethyl-4-methyl-1H-imidazol-5-yl)methylene)-5-(8-methyl-2,3-dihydro-1H-pyrido[2,3-b][1,4]oxazin-7-yl)indolin-2-one] |
| 260 pM | Cc1c(-c2ccc3c(c2)/C(=C/c2cn[nH]c2)C(=O)N3)cnc2c1NCCO2 [Compound C69, (Z)-3-((1H-pyrazol-4-yl)methylene)-5-(8-methyl-2,3-dihydro-1H-pyrido[2,3-b][1,4]oxazin-7-yl)indolin-2-one] |

From patent US11453681B2, “Substituted eneoxindoles and uses thereof” (Gilead Sciences, Inc., priority 2019, dated 2022)
